The compounds below were run against T1, human 5HT1A-serotonergic receptor (Homo sapiens, UniProt P08908) (assay: Radioligand binding to recombinant 5-HT1A receptors). Conditions: [3H]8-OH-DPAT 1 nM, membranes of HeLa cells with human 5-HT1A receptor; Ki from IC50 by Cheng & Prusoff; read-out: Binding affinity for 5HT1A receptors, Ki.
T1 construct: expressed in transfected cells; host or cells: HeLa (human cell line), stably transfected; cell membranes used
T1 sequence (P08908 1-422): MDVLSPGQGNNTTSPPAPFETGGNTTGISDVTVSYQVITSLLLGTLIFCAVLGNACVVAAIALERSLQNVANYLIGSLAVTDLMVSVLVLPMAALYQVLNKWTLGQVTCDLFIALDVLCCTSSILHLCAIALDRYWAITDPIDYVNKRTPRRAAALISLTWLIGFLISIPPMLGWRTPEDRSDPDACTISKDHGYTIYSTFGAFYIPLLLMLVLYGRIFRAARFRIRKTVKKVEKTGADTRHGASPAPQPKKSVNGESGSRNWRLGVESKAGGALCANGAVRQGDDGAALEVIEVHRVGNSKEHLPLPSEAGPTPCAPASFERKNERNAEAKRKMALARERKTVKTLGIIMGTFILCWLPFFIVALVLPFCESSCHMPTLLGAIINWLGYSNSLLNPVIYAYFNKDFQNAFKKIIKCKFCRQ
Experimental: Genomic clone G-21 coding for the human 5HT1A-serotonergic receptor was stably transfected in a human cell line (HeLa). HeLa cells were grown as monolayers in Dulbecco's modified Eagle medium (DMEM), containing 10% foetal bovine serum, gentamicin ([…]) and 5% carbon dioxide, at 37° C. The cells were detached from the growth flask at 95% confluence by a cell scraper and were lysed in cold 5 mM Tris and 5 mM EDTA buffer (pH 7.4). The homogenates were centrifuged at 40000×g×20 minutes and the pellets were resuspended in a small volume of cold 5 mM Tris and 5 mM EDTA buffer (pH 7.4) and immediately frozen and stored at −70° C. until use. On the day of experiment, the cell membranes were resuspended in incubation buffer: 50 mM Tris HCl (pH 7.4), 2.5 mM MgCl2, […] (Fargin et al., Nature 335, 358-360, 1988). The membranes were incubated in a final volume of 1 ml for 30 minutes at 30° C. with 1 nM [^3H]8-OH-DPAT, in the absence or presence of the test compounds. Non-specific binding was determined in the presence of 10 μM 5-HT. Incubation was stopped by addition of cold Tris-HC 1 buffer and rapid filtration through a 0.2%-polyethyleneimine-pretreated Whatman-GF/B or Schleicher-&-Schuell-GF52 filter.
The affinity of the tested compounds was evaluated as inhibition of specific binding of the radioligand to 5-HT1A receptors (IC50) by using the non-linear curve-fitting program Allfit (De Lean et al., Am. J. Physiol. 235, E97-E102 (1978). The IC50 value was converted to an affinity constant (Ki) by the equation of Cheng & Prusoff (Cheng Y. C., Prusoff W. H., Biochem. Pharmacol. 22, 3099-3108 (1973)).

With COc1cc(F)ccc1N1CCN(CC2CCc3cc(-c4c(C)noc4C)ccc3N2C(=O)C2CCCCC2)CC1 (centres unmarked) [Example 64, 1-[1-Cyclohexanecarbonyl-6-(3,5-dimethylisoxazol-4-yl)-1,2,3,4-tetrahydroquinoline-2-ylmethyl]-4-(4-fluoro-2-methoxyphenyl)piperazine] as the compound, how does the Ki read?
Its Ki is 0.0239 µM.

Which Ki does the source give for O=C(CCOc1ccccc1)N1c2ccccc2CCC1CN1CCN(c2cccc3[nH]ccc23)CC1 (centres unmarked) [Example 68A61, 1-(4-Indolyl)-4-[1-(3-phenoxypropionyl)-1,2,3,4-tetrahydroquinoline-2-ylmethyl]piperazine] here?
The Ki was 0.0197 µM.

With CC(C)OCCC(=O)N1c2ccccc2CCC1CN1CCN(c2cccc3[nH]ccc23)CC1 (centres unmarked) [Example 12, 1-[1-(3-Isopropoxypropionyl)-1,2,3,4-tetrahydroquinoline-2-ylmethyl]-4-(4-indolyl)piperazine] as the compound, how does the Ki read?
The Ki was 0.0475 µM.

CCNC(=O)N1c2ccccc2CCC1CN1CCN(c2cccc3[nH]ccc23)CC1 (centres unmarked) [Example 20, 1-(1-Ethylaminocarbonyl-1,2,3,4-tetrahydroquinoline-2-ylmethyl)-4-(4-indolyl)piperazine] was tested. Which Ki did it give?
Its Ki is 0.0386 µM.

For O=C(N1CCOCC1)N1c2ccccc2CCC1CN1CCN(c2cccc3[nH]ccc23)CC1 (centres unmarked) [Example 14, 1-[1-(4-Morpholinocarbonyl)-1,2,3,4-tetrahydroquinoline-2-ylmethyl]-4-(4-indolyl)piperazine], which Ki is on record?
The Ki was 0.082 µM.

Which Ki does the source give for O=C(c1ccccn1)N1c2ccccc2CCC1CN1CCN(c2cccc3[nH]ccc23)CC1 (centres unmarked) [Example 68A32, 1-(4-Indolyl)-4-[1-(2-pyridylcarbonyl)-1,2,3,4-tetrahydroquinoline-2-ylmethyl]piperazine] here?
The Ki was 0.0194 µM.

O=C(C1CCCCC1)N1c2ccccc2CCC1CN1CCC(c2c(F)cccc2Cl)CC1 (centres unmarked) [Example 72A53, 4-(2-Chloro-6-fluorophenyl)-1-(1-cyclohexanecarbonyl-1,2,3,4-tetrahydroquinolin-2-ylmethyl)piperidine] was tested. Which Ki did it give?
Its Ki is 0.0061 µM.

Which Ki does the source give for O=C(C1CCCCC1)N1c2ccccc2CCC1CN1CCN(c2c(Cl)cncc2Cl)CC1 (centres unmarked) [Example 72A66, 1-(1-Cyclohexanecarbonyl-1,2,3,4-tetrahydroquinolin-2-ylmethyl)-4-(3,5-dichloropyridin-4-yl)piperazine] here?
Its Ki is 0.0102 µM.

With COc1ccc(S(=O)(=O)N2c3ccccc3CCC2CN2CCN(c3cccc4[nH]ccc34)CC2)cc1 (centres unmarked) [Example 70A2, 1(4-Indolyl)-4-[1-(4-methoxyphenylsulphonyl)-1,2,3,4-tetrahydroquinoline-2-ylmethyl]piperazine] as the compound, how does the Ki read?
Its Ki is 0.0188 µM.

With O=C1CCC(CC(=O)N2c3ccccc3CCC2CN2CCN(c3cccc4[nH]ccc34)CC2)N1 (centres unmarked) [Example 68A54, 1-(4-Indolyl)-4-[1-[2-(5-oxopyrrolidin-2yl)acetyl]-1,2,3,4-tetrahydroquinoline-2-ylmethyl]piperazine] as the compound, how does the Ki read?
The Ki was 0.0414 µM.

With O=C(C1CCCCC1)N1c2ccccc2CCC1CN1CCCC(Cc2ccccc2)C1 (single isomer, unassigned) [Example 59, 3-Benzyl-1-(1-cyclohexanecarbonyl-1,2,3,4-tetrahydroquinoline-2-ylmethyl)piperidine] as the compound, how does the Ki read?
The Ki was 0.0457 µM.

Which Ki does the source give for O=C(CCc1ccccc1)N1c2ccccc2CCC1CN1CCN(c2cccc3[nH]ccc23)CC1 (centres unmarked) [Example 68A24, 1-(4-Indolyl)-4-[1-(3-phenylpropionyl)-1,2,3,4-tetrahydroquinoline-2-ylmethyl]piperazine] here?
Its Ki is 0.0329 µM.

Cc1ccc(N2CCN(CC3CCc4ccccc4N3C(=O)C3CCCCC3)CC2)c2cc[nH]c12 (centres unmarked) [Example 62A5, 1-(1-Cyclohexanecarbonyl-1,2,3,4-tetrahydroquinoline-2-ylmethyl)-4-(7-methyl-4-indolyl)piperazine] was tested. Which Ki did it give?
The Ki was 0.0312 µM.

How did the Ki turn out when COc1ccc(C(=O)N2c3ccccc3CCC2CN2CCN(c3nccc4ccccc34)CC2)cc1 (centres unmarked) [Example 75A5, 1-(1-Isoquinolinyl)-4-[1-(4-methoxybenzoyl)-1,2,3,4-tetrahydroquinolin-2-ylmethyl]piperazine] was run?
The Ki was 0.0026 µM.

O=C(C1CCCCC1)N1c2ccc(F)cc2CCC1CN1CCN(c2ccccc2OCC(F)(F)F)CC1 (centres unmarked) [Example 5, 1-(1-Cyclohexanecarbonyl-6-fluoro-1,2,3,4-tetrahydroquinoline-2-ylmethyl)-4-[2-(2,2,2-trifluoroethoxy)phenyl]piperazine] was tested. Which Ki did it give?
Its Ki is 0.0107 µM.

COc1ccc(NC(=O)N2c3ccccc3CCC2CN2CCN(c3cccc4[nH]ccc34)CC2)cc1 (centres unmarked) [Example 69A13, 1(4-Indolyl)-4-[1-(4-methoxyphenylaminocarbonyl)-1,2,3,4-tetrahydroquinoline-2-ylmethyl]piperazine] was tested. Which Ki did it give?
Its Ki is 0.0213 µM.

O=C(C1CCC1)N1c2ccccc2CCC1CN1CCN(c2nccc3ccccc23)CC1 (centres unmarked) [Example 75A10, 1-(1-Cyclobutanecarbonyl-1,2,3,4-tetrahydroquinolin-2-ylmethyl)-4-(1-isoquinolinyl)piperazine] was tested. Which Ki did it give?
The Ki was 0.0264 µM.

With O=C(COc1ccc(Cl)cc1)N1c2ccccc2CCC1CN1CCN(c2cccc3[nH]ccc23)CC1 (centres unmarked) [Example 68A51, 1-[1-[2-(4-Chlorophenoxy)acetyl]-1,2,3,4-tetrahydroquinoline-2-ylmethyl]-4-(4-indolyl)piperazine] as the compound, how does the Ki read?
The Ki was 0.0156 µM.

How did the Ki turn out when O=C(C1CCCCC1)N1c2ccccc2CCC1CN1CCC(c2cccc(Cl)c2Cl)CC1 (centres unmarked) [Example 72A51, 1-(1-Cyclohexanecarbonyl-1,2,3,4-tetrahydroquinolin-2-ylmethyl)-4-(2,3-dichlorophenyl)piperidine] was run?
Its Ki is 0.015 µM.

O=C(C1CCCCC1)N1c2ccccc2CCC1CN1CCN(c2ccc(F)cc2F)CC1 (centres unmarked) [Example 72A18, 1-(1-Cyclohexanecarbonyl-1,2,3,4-tetrahydroquinolin-2-ylmethyl)-4-(2,4-difluorophenyl)piperazine] was tested. Which Ki did it give?
The Ki was 0.011 µM.

COc1cc(F)ccc1N1CCN(CC2CCc3ccccc3N2C(=O)Cc2ccsc2)CC1 (centres unmarked) [Example 74A9, 1-(4-Fluoro-2-methoxyphenyl)-4-[1-(3-thienylacetyl)-1,2,3,4-tetrahydroquinolin-2-ylmethyl]piperazine] was tested. Which Ki did it give?
Its Ki is 0.0383 µM.

COc1ccc(C(=O)N2c3ccccc3CCC2CN2CCN(c3cccc4c3OCCO4)CC2)cc1 (centres unmarked) [Example 76A4, 1-(2,3-Dihydrobenzo[1,4]dioxin-5-yl)-4-[1-(4-methoxybenzoyl)-1,2,3,4-tetrahydroquinolin-2-ylmethyl]piperazine] was tested. Which Ki did it give?
The Ki was 0.0039 µM.

For O=C(NCCc1ccccc1)N1c2ccccc2CCC1CN1CCN(c2cccc3[nH]ccc23)CC1 (centres unmarked) [Example 69A10, 1(4-Indolyl)-4-[1-(2-phenylethylaminocarbonyl)-1,2,3,4-tetrahydroquinoline-2-ylmethyl]piperazine], which Ki is on record?
The Ki was 0.0135 µM.

Which Ki does the source give for O=S(=O)(c1ccc(F)cc1)N1c2ccccc2CCC1CN1CCN(c2cccc3[nH]ccc23)CC1 (centres unmarked) [Example 70A4, 1-[1-(4-Fluorophenylsulphonyl)-1,2,3,4-tetrahydroquinoline-2-ylmethyl]-4-(4-indolyl)piperazine] here?
The Ki was 0.0209 µM.

COc1ccc(CC(=O)N2c3ccccc3CCC2CN2CCN(c3cccc4[nH]ccc34)CC2)cc1 (centres unmarked) [Example 68A43, 1-(4-Indolyl)-4-[1-[2-(4-methoxyphenylacetyl)]-1,2,3,4-tetrahydroquinoline-2-ylmethyl]piperazine] was tested. Which Ki did it give?
Its Ki is 0.0427 µM.

How did the Ki turn out when Cc1cccc(NC(=O)N2c3ccccc3CCC2CN2CCN(c3cccc4[nH]ccc34)CC2)c1 (centres unmarked) [Example 69A1, 1-(4-Indolyl)-4-[1-(3-methylphenylaminocarbonyl)-1,2,3,4-tetrahydroquinoline-2-ylmethyl]piperazine] was run?
Its Ki is 0.0175 µM.

From patent US20030162777A1, “Novel N-acylated heterocycles” (Recordati S.A., priority 2001, published 2003)
